Measured values reported in PubChem BioAssay (NCI).
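Tested at 5 concentrations; 48 h exposure; 96-well plates; endpoints linearly interpolated, else capped at highest concentration. GI50 is the concentration that inhibits growth by half. Definition used: TGI = concentration required for complete inhibition of growth.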

How the values were obtained:
Test in all cases: NCI-60 cell line screen, 48 h
[1] = tested on: RPMI-8226 leukemia
[2] = tested on: K-562 leukemia
[3] = tested on: MALME-3M melanoma
[4] = tested on: HCC-2998 colon
[5] = tested on: SF-268 CNS
[6] = tested on: HL-60(TB) leukemia
[7] = tested on: OVCAR-8 ovarian
[8] = tested on: NCI-H522 lung
[9] = tested on: SNB-19 CNS
[10] = tested on: SF-295 CNS

Compound	GI50 [1] [µM]	TGI [1] [µM]	GI50 [2] [µM]	TGI [2] [µM]	GI50 [3] [µM]	TGI [3] [µM]	GI50 [4] [µM]	TGI [4] [µM]	GI50 [5] [µM]	TGI [5] [µM]	GI50 [6] [µM]	TGI [6] [µM]	GI50 [7] [µM]	TGI [7] [µM]	GI50 [8] [µM]	GI50 [9] [µM]	TGI [9] [µM]	GI50 [10] [µM]	TGI [10] [µM]	TGI [8] [µM]
CCCCCCCCC(=O)OCC(CS[As](C)C)OC(=O)CCCCCCCC (stereo unspecified)	0.33	2.16	0.342	12.9	0.0531	0.708	0.356	1.83	3.53	25.9	0.285	1.78	1.75	5.3	1.11	11.5	42.9	3.66	19.4	–
COC(=O)C1=C(C(=O)OC)C2(C)Nc3ccccc3C2=C(c2ccccc2)C1 (stereo unspecified)	–	29.6	–	47.8	–	37.1	–	64.2	–	66.5	–	41.5	–	61.7	–	–	75.5	–	58	35.9
COc1cc(C(=O)N/N=C/c2ccc(N(C)C)cc2)cc(OC)c1OC	0.344	–	0.353	> 100	0.582	> 100	0.551	19.1	1.12	> 100	0.303	–	0.599	> 100	0.161	10.6	> 100	0.288	–	0.937
CCN(CC)C1CCC(Nc2c(C(C)=O)cnc3ccc(-c4ccc(O)c(Cl)c4)cc23)CC1 (stereo unspecified)	0.393	2.1	0.125	5.72	0.941	16.9	1.63	12.9	0.487	12.2	0.15	1.51	0.818	14	0.331	1.75	69.6	4.46	24.9	1.71
CC(C)NC(=O)CCN(C(=O)O)S(=O)(=O)c1ccc(NC(=O)c2ccccc2)cc1	–	> 71.5	–	> 64.5	–	> 100	–	> 100	–	> 100	–	> 64	–	> 94.7	–	–	> 100	–	> 100	> 100
O=C1c2ccccc2-c2c1c1ccccc1c(=O)n2CCCNCCCCNCCCN1C(=O)c2ccccc2C2C(=O)c3ccccc3C21 (stereo unspecified)	0.00858	0.237	0.182	0.727	5.27	35	0.194	0.908	0.238	1.42	0.203	1.17	0.0241	0.986	9.38	0.57	1.93	0.0647	0.872	50
Clc1ccc(-c2cc(-c3ccccc3)nc(NCCNc3ccnc4cc(Cl)ccc34)n2)cc1	2.03	4.54	1.62	3.53	1.71	3.3	1.85	3.56	1.81	3.8	1.85	3.76	1.91	4.1	1.81	1.72	3.59	1.8	3.52	3.78
O=C(Nc1ccc(/C=C/c2ccc(NC(=O)c3cc(S(=O)(=O)O)c4cccnc4c3O)cc2S(=O)(=O)O)c(S(=O)(=O)O)c1)c1cc(S(=O)(=O)O)c2cccnc2c1O	27	> 65.2	12	> 75.2	34.4	> 62.6	97.6	> 100	7.99	> 100	0.337	3.2	9.66	> 72.4	15.3	12.2	> 100	34.4	> 76.8	47
O=C1OCC2=C1C(c1ccc(Cl)c(Cl)c1)c1cc3c(cc1N2CCO)CCC3 (stereo unspecified)	0.237	15.1	0.204	9.71	0.193	16.4	0.418	4.29	0.343	9.34	0.172	1.54	0.221	8.27	0.11	0.324	15.2	0.108	1.5	0.371
